{"source": "patent US20080254152A1", "about": "“Methods for Reducing the Effects of Stress on Skin Condition” (priority 2003, published 2008)", "key": {"[1]": {"test_system": "ICAM-1 expression in HUVECs", "assay": "ICAM-1 expression in HUVECs pre-treated 5 days with dexamethasone, then oxidatively stressed with PMA (ELISA)", "type": "cell-based, Human", "conditions": "chronic 1 μM glucocorticoid 5 days, then 1 μM PMA; HUVEC; FIG. 1", "experimental": "(§1) An in vitro model has been developed to investigate the impact of chronic stress on the inflammatory status of endothelial cells. • a. Cells are grown in 6-well (9.5 cm^2) plates. • b. […] Tissue culture supernatant and cell pellets are harvested at timepoint T0. • d. The cells are oxidatively stressed with 1 μM Phorbol Myristate Acetate (PMA). • e. Tissue culture supernatant and cell pellets were harvested at 6, 24 and 48 hours (T6, T24 and T48, respectively) post-PMA treatment. • f. All tissue culture supernatant was assayed for Lactate Dehydrogenase (LDH), as a measure of cytotoxicity, and Interleukin-6 synthesis. • g. All cells were counted (Beckman Coulter Counter) and pelleted and cell lysate assayed for ICAM-1 expression (Intra Cellular Adhesion Molecule 1).\nHUVEC cells (Human umbilical vein endothelial cells, TCS Biologicals) were cultured and passaged in EGM-2 (Endothelial growth medium, Biowhittaker) supplemented with heparin, VEGF (vascular endothelial growth factor), gentamicin sulphate, ascorbic acid, HEGF (Human endothelial growth factor), hydrocortisone, HFGF-B (Human fibroblast growth factor B), R3-IGF-1 (long R insulin-like growth factor 1) and FBS (foetal bovine serum).\nCells were routinely plated out in 6-well tissue culture dishes, at a seeding density of ˜5000 cells/cm^2 in 2 ml complete medium/well, 48 hours before starting the experiment, and incubated at 37° C. in 5% CO2.\nPre-treatment and test solutions were prepared in EGM-2 containing all supplements except hydrocortisone.\nFollowing this, the cells were oxidatively stressed for 24 hours with 1 μM PMA (Sigma P8139).\nReceptor antagonists were added to the cells during the pre-treatment period. These included the Glucocorticoid Receptor Antagonist; 2 μM Mifepristone (Sigma M8046) and two CRH receptor antagonists; 200 nM Astressin (Sigma A4933) and 200 nM α-helical CRF peptide antagonist (Sigma C2917).\nAny change in cell morphology was noted before the cells were harvested. Both the tissue culture supernatant and the endothelial cells were harvested after the five-day pre-treatment period (T0), at 6 hours and 24 hours after addition of PMA (T6 and T24) and at 24 hours after removal of the PMA (T48). All tissue culture supernatants were stored at −20° C.\nAll cell pellets were lysed on ice for 30 minutes in 1 ml cell lysis buffer per 2.5×10^6 cells. The lysis buffer contained 1% NP-40, 0.1% sodium deoxycholate, 0.1% SDS, 6 mM sodium chloride and 0.05M Tris at pH 7.6. Protease inhibitor cocktail ([…]; Sigma P8340) was added prior to use at a level of 10 μl per ml of lysis buffer. The partially lysed cell pellets were completely homogenised with a pellet pestle and unwanted cell debris removed by centrifugation for 20 minutes at 20,000 g at 4° C. The clarified cell lysate was frozen at −80° C. until needed.\nThe total protein concentration of each cell lysate was measured using the Pierce BCA protein assay kit. A set of eight standard solutions ranging from 0 to 1200 μg/ml protein was prepared from the supplied 2 mg/ml BSA stock solution. 10 μl of standard or cell lysate was added to duplicate wells of a flat-bottomed, 96-well microtitre plate. The reagent solution was prepared according to the kit instructions from 50 parts reagent A and 1 part reagent B. 200 μl of the final reagent was added to each well of the microtitre plate. The plate was mixed, covered and incubated at 37° C. for 30 minutes and absorbance read at 562 nm.\nICAM-1 protein in each cell lysate was estimated using the Human sICAM-1 DuoSet ELISA kit (R&D Systems DY720) according to the manufacturer's instructions.\nThe capture antibody was diluted to a final concentration of 4 μg/ml in PBS and 100 μl was used to coat each well of a 96-well microtitre plate overnight at room temperature. The plate was then washed three times with wash buffer (0.05% Tween 20 in PBS)."}, "[2]": {"test_system": "MMP-1 expression in human adult-derived dermal fibroblast cells", "assay": "Active MMP-1 in adult-derived human dermal fibroblasts after chronic dexamethasone and PMA", "type": "cell-based", "conditions": "for Suppression of MMP-1 synthesis vs control, untreated cells: chronic dexamethasone then 1 μM PMA, adult fibroblasts", "experimental": "(§2) In this study, to understand better the effect of chronic stress on dermal matrix remodelling in the skin, we have therefore measured changes in markers of dermal matrix degradation (MMP-1) and dermal matrix synthesis (Procollagen I) in chronically glucocorticoid-treated primary human dermal fibroblasts, following acute stress with PMA. The experimental approach is similar to that described in example 1 except that the cells tested are dermal fibroblasts and cells are assayed for expression of procollagen-1, MMP-1 and MMP-9 expression.\n(§3) Primary human dermal fibroblast cells were cultured and passaged in DMEM (Gibco) supplemented with 10% FBS (foetal bovine serum). Cells were routinely plated out in 6-well tissue culture dishes, at a seeding density of ˜5000 cells/cm^2 in 2 ml complete medium/well for 24 hours, and incubated at 37° C. in 5% CO2. Media was removed and cells grown in DMEM & 1% FBS, 24 hours prior to treatments.\n(§4) Pre-treatment and test solutions were prepared in DMEM containing low serum (1% FBS). […] Following this, the cells were oxidatively stressed for 24 hours with 1 μM PMA (Sigma P8139).\n(§5) MMP-1 and MMP-9 protein in each cell supernatant was estimated using the Human active MMP-1 and MMP-9 Fluorokine enzyme kit (R&D Systems F1M00 and F9M00, respectively), according to the manufacturer's instructions.\n(§6) Six MMP-1 and MMP-9 standards were prepared in calibrator diluent at concentrations ranging from 0.39 to 12.5 ng/ml and 0.25 to 16 ng/ml, respectively. 100 μl of assay diluent and 150 μl of tissue culture supernatant or standard was added to duplicate wells. The plate was incubated at room temperature for 3 hours on a horizontal orbital plate shaker before being washed four times with wash buffer. 200 μl of APMA was added to each well and the plate incubated at 37° C. for 2 hours in a humidified environment and protected from the light. The plate was washed as before. Each well received 200 μl of substrate solution and the plate incubated at 37° C. for 17-20 hours in a humidified environment and protected from the light. The relative fluorescence unit (RFU) of each well was determined using a fluorescence plate set with 1×20 mS integration time, plate speed ˜6; excitation wavelength set to 320 nm and emission wavelength set to 405 nm.\n(§7) A standard curve was plotted of mean RFU versus MMP-1 and MMP-9 concentration (respectively), and the line of best fit calculated by regression analysis. The unknown concentration of either active MMP-1 or MMP-9 protein in all of the samples was estimated from this."}, "[3]": {"test_system": "MMP-1 expression in human neonatal dermal fibroblast cells", "assay": "Active MMP-1 in neonatal-derived human dermal fibroblasts after chronic dexamethasone and PMA", "type": "cell-based", "conditions": "for Suppression of MMP-1 synthesis and secretion vs control, untreated cells: chronic 1 μM dexamethasone 5 days then 1 μM PMA, neonatal fibroblasts", "experimental": "as §2, §3, §4, §5, §6, §7\nThe same methods were used as described in Example 2, except that various test agents were added to the cells during the pre-treatment period."}, "[4]": {"test_system": "IL-6 expression by Human Umbilical Vein Endothelial Cells", "assay": "IL-6 ELISA of HUVEC tissue culture supernatant", "type": "cell-based", "conditions": "without PMA", "experimental": "as §1"}}}
{"smiles": "C[C@@H]1C[C@H]2[C@@H]3CCC4=CC(=O)C=C[C@]4(C)[C@@]3(F)[C@@H](O)C[C@]2(C)[C@@]1(O)C(=O)CO", "note": "[Dexamethasone]", "values": [{"measurement": "Induction of ICAM-1 synthesis after PMA, glucocorticoid pre-treated vs not pre-treated cells", "setting": "[1]", "value": "significantly greater"}, {"measurement": "Level of active MMP-1", "setting": "[2]; GC-treated adult fibroblasts", "value": "~25", "unit": "ng/mL"}, {"measurement": "Suppression of MMP-1 synthesis vs control, untreated cells", "setting": "[2]; T6", "value": "~85", "unit": "%"}, {"measurement": "Suppression of MMP-1 synthesis vs control, untreated cells", "setting": "[2]; T24", "value": 10, "unit": "%"}, {"measurement": "Suppression of MMP-1 synthesis vs control, untreated cells", "setting": "[2]; T48", "value": 80, "unit": "%"}, {"measurement": "Level of active MMP-1", "setting": "[3]; GC-treated neonate fibroblasts", "value": 15, "unit": "ng/mL"}, {"measurement": "Suppression of MMP-1 synthesis and secretion vs control, untreated cells", "setting": "[3]; T6", "value": "~60", "unit": "%"}, {"measurement": "Suppression of MMP-1 synthesis and secretion vs control, untreated cells", "setting": "[3]; T24", "value": 80, "unit": "%"}, {"measurement": "Suppression of MMP-1 synthesis and secretion vs control, untreated cells", "setting": "[3]; T48", "value": 70, "unit": "%"}, {"measurement": "IL-6 secretion with glucocorticoid alone", "setting": "[4]", "value": "did not cause increased secretion of IL-6"}]}
